Results from patent US20200078468A1, “NEUROTENSIN RECEPTOR BINDING CONJUGATES AND FORMULATIONS THEREOF” (priority 2016, published 2020).
Where two headings read alike, the source gives them in different places. Numbered stars: 1 amine (or outer) side, 2 acyl side, 3 side chain; on linkers, the order of the positions; unused ones are H or OH. Bridge positions count the residues as written; N and C are the ends. Square brackets hold non-standard residues; d marks the D form. Peptide text beside a SMILES is read from it. I, II: the chains in the order shown. * marks the point of attachment. MMAE(N-CO2CH2CH2S) = CC[C@H](C)[C@@H]([C@@H](CC(=O)N1CCC[C@H]1[C@H](OC)[C@@H](C)C(=O)N[C@H](C)[C@@H](O)c1ccccc1)OC)N(C)C(=O)[C@@H](NC(=O)[C@H](C(C)C)N(C)C(=O)OCCS*)C(C)C; Propanoyl(3-SS-DM1) = COc1cc2cc(c1Cl)N(C)C(=O)C[C@H](OC(=O)[C@H](C)N(C)C(=O)CCSSCCC(=O)*)[C@]1(C)O[C@H]1[C@H](C)[C@@H]1C[C@@](O)(NC(=O)O1)[C@H](OC)/C=C/C=C(\C)C2; Hexanoyl(6-succinimido-3yl) = O=C1CC([*:1])C(=O)N1CCCCCC(=O)[*:2]; Dolaproine = CO[C@@H]([C@@H]1CCCN1)[C@@H](C)C(=O)O; Dil = CC[C@H](C)[C@H](NC)[C@@H](CC(=O)O)OC; PABC = O=C(OCc1ccc(N[*:1])cc1)[*:2]; NMeR = CN[C@@H](CCCNC(=N)N)C(=O)O; X1 = C[C@@H](N*)[C@@H](O)c1ccccc1; Cit = NC(=O)NCCC[C@H](N)C(=O)O; Pen = CC(C)(S)[C@H](N)C(=O)O; Tle = CC(C)(C)[C@H](N)C(=O)O; NMeV = CN[C@H](C(=O)O)C(C)C

Key:
[1] = test system: SW48 (human colon cancer cells); test: inhibition of SW48 cell proliferation (CellTiter Glo); assay type: cell-based; settings: 72 hrs, read-out: SW-48 proliferation IC50
In short: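 Cells plated at 5,000/well and grown 24 hrs were exposed to conjugates for 72 hrs at 37° C, 5% CO2, in a ten-point three-fold series starting at 10 μM; vehicle was 0.01% DMSO. Proliferation was read by CellTiter Glo. % inhibition was taken relative to vehicle, with IC50 from four-parameter nonlinear regression.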

human NTSR1 = target: T1, human NTSR1 (Homo sapiens, UniProt P30989); test: radioligand-receptor binding assay, [125I] labeled neurotensin (Eurofins Panlabs)
T1 construct: host or cells: HEK-293 cells (membrane preparations)
T1 sequence (P30989 whole entry): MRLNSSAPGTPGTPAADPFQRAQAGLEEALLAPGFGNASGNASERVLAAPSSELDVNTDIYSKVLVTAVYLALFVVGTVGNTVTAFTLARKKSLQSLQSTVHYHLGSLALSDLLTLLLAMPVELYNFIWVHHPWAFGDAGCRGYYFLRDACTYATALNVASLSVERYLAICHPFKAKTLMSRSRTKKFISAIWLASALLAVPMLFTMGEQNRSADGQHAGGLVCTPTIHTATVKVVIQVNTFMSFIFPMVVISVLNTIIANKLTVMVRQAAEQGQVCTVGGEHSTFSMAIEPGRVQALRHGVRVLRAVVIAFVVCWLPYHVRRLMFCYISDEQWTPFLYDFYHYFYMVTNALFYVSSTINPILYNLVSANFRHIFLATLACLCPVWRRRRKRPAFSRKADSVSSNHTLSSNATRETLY
In short: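 Membranes from HEK-293 cells expressing human NTSR1 incubated 45 min with 0.02 nM [125I]neurotensin and conjugate in 6-point 3-fold dilutions from 100 or 10 nM; bound radioactivity counted after filtration. IC50 by nonlinear regression, converted to Ki via Cheng–Prusoff using historical ligand Kd.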

[2] = test system: HT-29 cells (human colon cancer cells); test: inhibition of HT29 cell proliferation (Cell Titer Glo 2.0); assay type: cell-based; settings: 72 h
Method: Conjugates were assessed in an in vitro assay evaluating inhibition of cell proliferation. HT-29 cells (human colon cancer cells) were seeded in white walled 96-well plates at 10,000 cells per well in 100 μl McCoy's 5a (Invitrogen) media supplemented with 10% Fetal Bovine Serum (Invitrogen). After allowing cells to settle overnight, 5 μl of 20× test article was added to each well in replicate and incubated for 72 h. 72 hours after addition of compound, plates were removed from incubator and allowed to cool to room temperature. 50 μl of Cell Titer Glo 2.0 (Promega) was added to each well, incubated for 15 minutes, and plates were read on Glomax luminometer (Promega) using the Cell Titer Glo protocol. Raw luminometer readings for each plate were transformed by dividing the experimental well into the mean of untreated control wells. This is reported as ratio of untreated, and is plotted with Prism 6 software (Graph Pad) and fitted with a 4-parameter, variable slope curve.
Conjugates are assessed for receptor-dependent cytotoxicity by the difference between an NTSR1-targeting conjugate, and the corresponding conjugate with the same linker moiety and active agent where the NTSR1-targeting domain has been scrambled.

[3] = [125I] neurotensin 0.02 nM, membranes from NTSR1 expressing HEK-293 cells, 45 minute incubation, Cheng and Prusoff, read-out: NTSR1 binding Ki

| SMILES | IC50 ([1]; NTSR1 targeted compound) | Ki (human NTSR1) | IC50 ([2]; NTSR1 targeted compound) | Ki (human NTSR1; [3]) | IC50 ([1]; NTSR1 scrambled compound) | IC50 ([2]; NTSR1 scrambled compound) |
| --- | --- | --- | --- | --- | --- | --- |
| CC[C@H](C)[C@@H]([C@@H](CC(=O)N1CCC[C@H]1[C@H](OC)[C@@H](C)C(=O)N[C@H](C)[C@@H](O)c1ccccc1)OC)N(C)C(=O)[C@@H](NC(=O)[C@H](C(C)C)N(C)C(=O)OCc1ccc(NC(=O)[C@H](CCCNC(N)=O)NC(=O)[C@@H](NC(=O)CCCCCN2C(=O)CC(SCCC(=O)NCCCC[C@H](NC(C)=O)C(=O)N3CCC[C@H]3C(=O)N(C)[C@@H](CCCNC(=N)N)C(=O)N[C@@H](CCCNC(=N)N)C(=O)N3CCC[C@H]3C(=O)N[C@@H](Cc3ccc(O)cc3)C(=O)N[C@H](C(=O)N[C@@H](CC(C)C)C(=O)O)C(C)(C)C)C2=O)C(C)C)cc1)C(C)C (some centres unmarked) [Compound 54] | 22 nM | 1.45 nM | 6.2 nM |  |  |  |
| COc1cc2cc(c1Cl)N(C)C(=O)C[C@H](OC(=O)[C@H](C)N(C)C(=O)CCSSCCC(=O)NCCCC[C@H](NC(C)=O)C(=O)N1CCC[C@H]1C(=O)N(C)[C@@H](CCCNC(=N)N)C(=O)N[C@@H](CCCNC(=N)N)C(=O)N1CCC[C@H]1C(=O)N[C@@H](Cc1ccc(O)cc1)C(=O)N[C@H](C(=O)N[C@@H](CC(C)C)C(=O)O)C(C)(C)C)[C@]1(C)O[C@H]1[C@H](C)[C@@H]1C[C@@](O)(NC(=O)O1)[C@H](OC)/C=C/C=C(\C)C2 [Compound 13] (Ac-K(Propanoyl(3-SS-DM1))P[NMeR]RPY[Tle]L-OH) | 1.6 nM |  | 4.9 nM | 0.48 nM |  |  |
| CC[C@H](C)[C@@H]([C@@H](CC(=O)N1CCC[C@H]1[C@H](OC)[C@@H](C)C(=O)N[C@H](C)[C@@H](O)c1ccccc1)OC)N(C)C(=O)[C@@H](NC(=O)[C@H](C(C)C)N(C)C(=O)OCCSSC(C)(C)[C@H](NC(C)=O)C(=O)N1CCC[C@H]1C(=O)N[C@@H](CCCNC(=N)N)C(=O)N[C@@H](CCCNC(=N)N)C(=O)N1CCC[C@H]1C(=O)N[C@@H](Cc1ccc(O)cc1)C(=O)N[C@H](C(=O)N[C@@H](CC(C)C)C(=O)O)C(C)(C)C)C(C)C [Compound 55] (Ac-[Pen](MMAE(N-CO2CH2CH2S))PRRPY[Tle]L-OH) | 13 nM |  | 1.9 nM | 1.53 nM |  |  |
| CC[C@H](C)[C@@H]([C@@H](CC(=O)N1CCC[C@H]1[C@H](OC)[C@@H](C)C(=O)N[C@H](C)[C@@H](O)c1ccccc1)OC)N(C)C(=O)[C@@H](NC(=O)[C@H](C(C)C)N(C)C(=O)OCc1ccc(NC(=O)[C@H](CCCNC(N)=O)NC(=O)[C@@H](NC(=O)CCCCCN2C(=O)CC(SC(C)(C)[C@H](NC(C)=O)C(=O)N3CCC[C@H]3C(=O)N[C@@H](CC(C)C)C(=O)N3CCC[C@H]3C(=O)N[C@@H](CCCNC(=N)N)C(=O)N[C@H](C(=O)N[C@@H](CCCNC(=N)N)C(=O)N[C@@H](Cc3ccc(O)cc3)C(=O)O)C(C)(C)C)C2=O)C(C)C)cc1)C(C)C (some centres unmarked) [Compound 90] |  |  |  |  | 60 nM | 97 nM |
| COc1cc2cc(c1Cl)N(C)C(=O)C[C@H](OC(=O)[C@H](C)N(C)C(=O)CCSSCCC(=O)NCCCC[C@H](NC(C)=O)C(=O)N1CCC[C@H]1C(=O)N[C@@H](CC(C)C)C(=O)N1CCC[C@H]1C(=O)N(C)[C@@H](CCCNC(=N)N)C(=O)N[C@H](C(=O)N[C@@H](CCCNC(=N)N)C(=O)N[C@@H](Cc1ccc(O)cc1)C(=O)O)C(C)(C)C)[C@]1(C)O[C@H]1[C@H](C)[C@@H]1C[C@@](O)(NC(=O)O1)[C@H](OC)/C=C/C=C(\C)C2 [Compound 78] |  |  |  |  | 3 nM | 13.3 nM |
| COc1cc2cc(c1Cl)N(C)C(=O)C[C@H](OC(=O)[C@H](C)N(C)C(=O)CCSC1CC(=O)N(CCCNC(=O)CNC(=O)[C@H](CC(C)C)NC(=O)[C@H](Cc3ccccc3)NC(=O)CNC(=O)CCC(=O)NCCCC[C@H](NC(C)=O)C(=O)N3CCC[C@H]3C(=O)N(C)[C@@H](CCCNC(=N)N)C(=O)N[C@@H](CCCNC(=N)N)C(=O)N3CCC[C@H]3C(=O)N[C@@H](Cc3ccc(O)cc3)C(=O)N[C@H](C(=O)N[C@@H](CC(C)C)C(=O)O)C(C)(C)C)C1=O)[C@]1(C)O[C@H]1[C@H](C)[C@@H]1C[C@@](O)(NC(=O)O1)[C@H](OC)/C=C/C=C(\C)C2 (some centres unmarked) [Compound 14] | 2.2 nM |  | 17 nM | 0.78 nM |  |  |
| CC[C@H](C)[C@@H]([C@@H](CC(=O)N1CCC[C@H]1[C@H](OC)[C@@H](C)C(=O)N[C@H](C)[C@@H](O)c1ccccc1)OC)N(C)C(=O)[C@@H](NC(=O)[C@H](C(C)C)N(C)C(=O)OCc1ccc(NC(=O)[C@H](CCCNC(N)=O)NC(=O)[C@@H](NC(=O)CCCCCN2C(=O)CC(SC(C)(C)[C@H](NC(C)=O)C(=O)N3CCC[C@H]3C(=O)N[C@@H](CCCNC(=N)N)C(=O)N[C@@H](CCCNC(=N)N)C(=O)N3CCC[C@H]3C(=O)N[C@@H](Cc3ccc(O)cc3)C(=O)N[C@H](C(=O)N[C@@H](CC(C)C)C(=O)O)C(C)(C)C)C2=O)C(C)C)cc1)C(C)C (stereo partly drawn) [Compound 53] (I: Ac-[Pen]PRRPY[Tle]L-OH / II: V[Cit][PABC][NMeV]V[Dil][Dolaproine]-X1; linker I:1-II:N via Hexanoyl(6-succinimido-3yl)) | 17 nM |  | 16 nM | 3.15 nM |  |  |
| CC[C@H](C)[C@@H]([C@@H](CC(=O)N1CCC[C@H]1[C@H](OC)[C@@H](C)C(=O)N[C@H](C)[C@@H](O)c1ccccc1)OC)N(C)C(=O)[C@@H](NC(=O)[C@H](C(C)C)N(C)C(=O)OCCSSCCC(=O)NCCCC[C@H](NC(C)=O)C(=O)N1CCC[C@H]1C(=O)N(C)[C@@H](CCCNC(=N)N)C(=O)N[C@@H](CCCNC(=N)N)C(=O)N1CCC[C@H]1C(=O)N[C@@H](Cc1ccc(O)cc1)C(=O)N[C@H](C(=O)N[C@@H](CC(C)C)C(=O)O)C(C)(C)C)C(C)C [Compound 56] | 4.3 nM |  | 0.42 nM | 1.15 nM |  |  |
| COc1cc2cc(c1Cl)N(C)C(=O)C[C@H](OC(=O)[C@H](C)N(C)C(=O)CCSC1CC(=O)N(CCCCCC(=O)NCCCC[C@H](NC(C)=O)C(=O)N3CCC[C@H]3C(=O)N[C@@H](CC(C)C)C(=O)N3CCC[C@H]3C(=O)N(C)[C@@H](CCCNC(=N)N)C(=O)N[C@H](C(=O)N[C@@H](CCCNC(=N)N)C(=O)N[C@@H](Cc3ccc(O)cc3)C(=O)O)C(C)(C)C)C1=O)[C@]1(C)O[C@H]1[C@H](C)[C@@H]1C[C@@](O)(NC(=O)O1)[C@H](OC)/C=C/C=C(\C)C2 (some centres unmarked) [Compound 80] |  |  |  |  | 81 nM | 116 nM |
| COc1cc2cc(c1Cl)N(C)C(=O)C[C@H](OC(=O)[C@H](C)N(C)C(=O)CCSC1CC(=O)N(CCCCCC(=O)NCCCC[C@H](NC(C)=O)C(=O)N3CCC[C@H]3C(=O)N(C)[C@@H](CCCNC(=N)N)C(=O)N[C@@H](CCCNC(=N)N)C(=O)N3CCC[C@H]3C(=O)N[C@@H](Cc3ccc(O)cc3)C(=O)N[C@H](C(=O)N[C@@H](CC(C)C)C(=O)O)C(C)(C)C)C1=O)[C@]1(C)O[C@H]1[C@H](C)[C@@H]1C[C@@](O)(NC(=O)O1)[C@H](OC)/C=C/C=C(\C)C2 (some centres unmarked) [Compound 15] | 70 nM |  | 96 nM | 1.08 nM |  |  |
| COc1cc2cc(c1Cl)N(C)C(=O)C[C@H](OC(=O)[C@H](C)N(C)C(=O)CCSC1CC(=O)N(CCCNC(=O)CNC(=O)[C@H](CC(C)C)NC(=O)[C@H](Cc3ccccc3)NC(=O)CNC(=O)CCC(=O)NCCCC[C@H](NC(C)=O)C(=O)N3CCC[C@H]3C(=O)N[C@@H](CC(C)C)C(=O)N3CCC[C@H]3C(=O)N(C)[C@@H](CCCNC(=N)N)C(=O)N[C@H](C(=O)N[C@@H](CCCNC(=N)N)C(=O)N[C@@H](Cc3ccc(O)cc3)C(=O)O)C(C)(C)C)C1=O)[C@]1(C)O[C@H]1[C@H](C)[C@@H]1C[C@@](O)(NC(=O)O1)[C@H](OC)/C=C/C=C(\C)C2 (some centres unmarked) [Compound 79] |  |  |  | 980 nM | 76 nM | 97 nM |
| CC[C@H](C)[C@@H]([C@@H](CC(=O)N1CCC[C@H]1[C@H](OC)[C@@H](C)C(=O)N[C@H](C)[C@@H](O)c1ccccc1)OC)N(C)C(=O)[C@@H](NC(=O)[C@H](C(C)C)N(C)C(=O)OCCSSC(C)(C)[C@H](NC(C)=O)C(=O)N1CCC[C@H]1C(=O)N[C@@H](CC(C)C)C(=O)N1CCC[C@H]1C(=O)N[C@@H](CCCNC(=N)N)C(=O)N[C@H](C(=O)N[C@@H](CCCNC(=N)N)C(=O)N[C@@H](Cc1ccc(O)cc1)C(=O)O)C(C)(C)C)C(C)C [Compound 92] |  |  |  |  | 18 nM | 2.2 nM |
